Some test systems named below: UACC-62 melanoma; NCI-H226 lung; SK-MEL-28 melanoma; NCI-H23 lung; A498 renal; SK-MEL-5 melanoma; A549 NSCLC; K-562 leukemia; M14 melanoma; 786-0 renal.
Common to all, as to assay: NCI-60 cell line screen, 48 h

Consider five molecules from PubChem BioAssay (NCI).

Where “and” joins values, the source holds several entries; their conditions need not be identical. Equal values may be shown once.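 Following 48 hours of exposure in 96-well plates, responses at five concentrations were used to interpolate endpoints linearly. GI50 = concentration required for 50% inhibition of growth. TGI: concentration producing complete growth inhibition.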

`CC1CCC(C#N)(NOC2=NCCN2)CC1` (stereo not given): the GI50 is 25.4 µM in the assay on UACC-62 melanoma; 15.2 µM in the assay on NCI-H226 lung; greater than 100 µM in the assay with SK-MEL-28 melanoma; 34 µM with NCI-H23 lung; 40.5 µM in the assay on A498 renal; 38.6 µM with SK-MEL-5 melanoma. Also, the GI50 in the assay with A549 NSCLC was 39.4 µM; with K-562 leukemia, 29.8 µM; in the assay on M14 melanoma it was 46.4 µM; with 786-0 renal, 16.3 µM. Further, the TGI in the assay with UACC-62 melanoma is greater than 100 µM; in the assay with NCI-H226 lung it was 34.1 µM; in the assay on SK-MEL-28 melanoma it was greater than 100 µM; with NCI-H23 lung, greater than 100 µM; in the assay on A498 renal it was greater than 100 µM; in the assay on SK-MEL-5 melanoma, greater than 100 µM. Besides, the TGI is greater than 100 µM with A549 NSCLC, greater than 100 µM in the assay with K-562 leukemia, greater than 100 µM with M14 melanoma and 37.1 µM in the assay with 786-0 renal.

Take `CN1CCN(c2ccc([N+](=O)[O-])c3no[n+]([O-])c23)CC1`: the GI50 is 0.471 µM in the assay with UACC-62 melanoma; 0.697 µM with NCI-H226 lung; 0.991 µM in the assay on SK-MEL-28 melanoma; 0.173 µM in the assay on NCI-H23 lung; 0.288 µM in the assay with A498 renal; 1.04 µM in the assay on SK-MEL-5 melanoma. The GI50 with A549 NSCLC was 0.385 µM; in the assay with K-562 leukemia it was 0.11 µM; with M14 melanoma, 0.177 µM; in the assay with 786-0 renal, 0.298 µM. Moreover, the TGI in the assay with UACC-62 melanoma is 2.64 µM and 1.84 µM; with NCI-H226 lung, 3.39 µM and 2.16 µM; with SK-MEL-28 melanoma, 5.59 µM and 2.67 µM; in the assay on NCI-H23 lung, 0.389 µM and 1.02 µM; in the assay on A498 renal, 2.76 µM and 1.71 µM; with SK-MEL-5 melanoma, 2.91 µM and 2.51 µM. Further, the TGI is 3.53 µM and 2.06 µM in the assay with A549 NSCLC; 0.979 µM in the assay on K-562 leukemia; 1.7 µM and 0.927 µM with M14 melanoma; 0.923 µM and 1.15 µM in the assay with 786-0 renal.

For the molecule `CC(=O)[CH-]C(=O)c1ccccc1.CC(=O)[CH-]C(=O)c1ccccc1.CC[O-].O=C1C=C([O-])C(=O)c2ccccc21.[Ti+4]`, the GI50 was 38.8 µM in the assay with UACC-62 melanoma; 76 µM with NCI-H226 lung; greater than 100 µM in the assay on SK-MEL-28 melanoma; 10.8 µM in the assay on NCI-H23 lung; 81.1 µM in the assay on A498 renal; 14 µM in the assay on SK-MEL-5 melanoma. The GI50 was 46.3 µM in the assay with A549 NSCLC, greater than 100 µM with K-562 leukemia, 18 µM with M14 melanoma and greater than 100 µM with 786-0 renal. Further, the TGI in the assay on UACC-62 melanoma, in the assay on NCI-H226 lung, in the assay with SK-MEL-28 melanoma, in the assay on NCI-H23 lung, with A498 renal and in the assay on SK-MEL-5 melanoma was greater than 100 µM throughout. The TGI in the assay on A549 NSCLC, in the assay with K-562 leukemia, with M14 melanoma and with 786-0 renal was greater than 100 µM throughout.

Take `CN(C)NC(=S)NC12CC3CC(CC(C3)C1)C2`: the TGI with UACC-62 melanoma, in the assay on NCI-H226 lung, with SK-MEL-28 melanoma, in the assay with NCI-H23 lung, with A498 renal and with SK-MEL-5 melanoma was greater than 100 µM throughout. In addition, the TGI in the assay with A549 NSCLC, in the assay with K-562 leukemia, with M14 melanoma and with 786-0 renal was greater than 100 µM each time.

Consider `COC(=O)C(C(=O)C(=O)Nc1ccc(C)cc1C)c1nc2ccc([N+](=O)[O-])cc2[nH]c1=O` (stereo not given), for which the TGI in the assay with UACC-62 melanoma, with NCI-H226 lung, in the assay with SK-MEL-28 melanoma, with NCI-H23 lung, in the assay on A498 renal and in the assay with SK-MEL-5 melanoma was greater than 100 µM throughout. Moreover, the TGI in the assay with A549 NSCLC, in the assay on K-562 leukemia, with M14 melanoma and with 786-0 renal was greater than 100 µM in each case.
